Data from US20230263822A1, “MODULATION OF FACTOR 11 EXPRESSION” (Ionis Pharmaceuticals, Inc., priority 2008, published 2023).
Read-outs that look alike come from different tables or passages of the source. Strand notation (5' to 3'): a small letter for the sugar, then the base; units joined by * are phosphorothioate-linked, units joined directly phosphodiester-linked; [ ] holds rarer units or linkages, { } end groups; capitals alone tell only the bases. e = 2'-O-(2-methoxyethyl) (MOE); [5mC] = 5-methylcytosine; d = 2'-deoxy (DNA)

Key:
[1] = mouse, in vivo, sc, 50 mg/kg
[2] = mouse, in vivo, sc, 50 mg/kg; remark: listed apart in the source
[3] = mouse, in vivo, sc, 50 mg/kg; remark: listed apart in the source
[4] = tested on: human Factor 11 mRNA; test: Antisense inhibition of human Factor 11 in HepG2 cells, electroporation, 8,000 nM (Example 30); type: cell-based; conditions: electroporation, 8,000 nM antisense oligonucleotide
In short: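 HepG2 cells electroporated with 8,000 nM 5-10-5, 5-8-5 or 6-8-6 MOE gapmers (phosphorothioate, 5-methylcytidine), ~24 h. Factor 11 mRNA quantified by qRT-PCR, normalised to RIBOGREEN total RNA. Reported as percent inhibition versus untreated cells.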

[5] = Viscosity of ISIS antisense oligonucleotides, micro-viscometer at 25 °C (Example 47); type: physicochemical; conditions: for Concentration: concentration of the viscosity sample, UV reading at 260 nM at 85° C.; for Viscosity: in water, micro-viscometer at 25° C., at the concentration of the same line
Experimental: The viscosity of antisense oligonucleotides targeting human Factor 11 was measured with the aim of screening out antisense oligonucleotides which have a viscosity more than 40 cP at a concentration of 165-185 mg/mL.
ISIS oligonucleotides (32-35 mg) were weighed into a glass vial, 120 μL of water was added and the antisense oligonucleotide was dissolved into solution by heating the vial at 50° C. Part of (75 μL) the pre-heated sample was pipetted to a micro-viscometer (Cambridge). The temperature of the micro-viscometter was set to 25° C. and the viscosity of the sample was measured. Another part (20 μL) of the pre-heated sample was pipetted into 10 mL of water for UV reading at 260 nM at 85° C. (Cary UV instrument).

[6] = tested on: human Factor 11 mRNA; test: Dose-dependent inhibition of human Factor 11 in HepG2 cells, electroporation 0.7-20 uM (Example 4); type: cell-based
In short: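 HepG2 cells electroporated with antisense gapmers at 0.7, 2.2, 6.7 and 20 μM, treated ~16 h. Factor 11 mRNA quantified by qRT-PCR (primer probe set RTS 2966), normalised to RIBOGREEN total RNA; expressed as percent inhibition versus untreated control cells.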

[7] = tested on: human Factor 11 mRNA; test: Antisense inhibition of human Factor 11 in HepG2 cells, lipofectin, 75 nM (Example 1); type: cell-based; conditions: 75 nM antisense oligonucleotide, ~24 h, relative to untreated control cells, gapmers targeted to SEQ ID NO: 1
In short: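 HepG2 cells transfected via lipofectin with 75 nM antisense oligonucleotide (5-10-5 MOE gapmers, 20-mers, phosphorothioate, 5-methylcytidines), treated ~24 h. Factor 11 mRNA quantified by real-time PCR, normalised to RIBOGREEN total RNA; percent inhibition versus untreated cells.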

[8] = tested on: human Factor 11 mRNA; test: Antisense inhibition of human Factor 11 in HepG2 cells by microwalk gapmers, lipofectin, 75 nM (Example 3); type: cell-based; conditions: HepG2 cells, lipofectin, gapmers targeted to nucleobases 1062 to 1091 of SEQ ID NO: 1
In short: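 HepG2 cells (10,000/well) were transfected via lipofectin with 75 nM 20-mer MOE gapmers (phosphorothioate, 5-methyl-C) for about 24 h. Factor 11 mRNA was measured by qRT-PCR, normalized to RIBOGREEN total RNA, and given as percent inhibition versus untreated cells.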

[9] = tested on: human Factor 11 mRNA; test: Dose-dependent inhibition of human Factor 11 in HepG2 cells, lipofectin 9.375-75 nM (Example 4); type: cell-based
In short: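 HepG2 cells transfected via lipofectin with antisense oligonucleotide at 9.375, 18.75, 37.5 or 75 nM for about 16 h. Factor 11 mRNA quantified by real-time RT-PCR (primer probe set RTS 2966) and normalized to total RNA (RIBOGREEN). Results expressed as percent inhibition versus untreated cells.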

[10] = tested on: human Factor 11 mRNA; test: Dose-dependent antisense inhibition of human Factor 11 in HepG2 cells, lipofectin 9.375-150 nM (Example 2); type: cell-based; conditions: ~16 h
Experimental: Cells were plated at a density of 10,000 cells per well and transfected using lipofectin reagent with 9.375 nM, 18.75 nM, 37.5 nM, 75 nM, and 150 nM concentrations of antisense oligonucleotide, as specified in Table 3. After a treatment period of approximately 16 hours, RNA was isolated from the cells and Factor 11 mRNA levels were measured by quantitative real-time PCR. Human Factor 11 primer probe set RTS 2966 (forward sequence: […], incorporated herein as SEQ ID NO: 3; reverse sequence: […], incorporated herein as SEQ ID NO: 4; probe sequence: TTGTCTACTGAAGCACACCCAAACAGGGAX, incorporated herein as SEQ ID NO: 5) was used to measure mRNA levels. Factor 11 mRNA levels were adjusted according to total RNA content, as measured by RIBOGREEN. Results are presented as percent inhibition of Factor 11, relative to untreated control cells.

[11] = tested on: human Factor 11 mRNA; test: Dose-dependent inhibition of human Factor 11 in HepG2 cells, electroporation 123.46-10,000 nM (Example 31); type: cell-based
Experimental: Cells were plated at a density of 20,000 cells per well and transfected using electroporation with 123.46 nM, 370.37 nM, 1,111.11 nM, 3,333.33 nM and 10,000 nM concentrations of antisense oligonucleotide, as specified in Table 45. After a treatment period of approximately 16 hours, RNA was isolated from the cells and Factor 11 mRNA levels were measured by quantitative real-time PCR. Human Factor 11 primer probe set RTS 2966 was used to measure mRNA levels. Factor 11 mRNA levels were adjusted according to total RNA content, as measured by RIBOGREEN. Results are presented as percent inhibition of Factor 11, relative to untreated control cells.

[12] = mouse, in vivo, sc, 50 mg/kg; remark: listed apart in the source

Substance: ISIS 416862: MOE gapmer, nucleobases 1275 to 1318 of SEQ ID NO: 1 (Table 8) (antisense AGCGGACGGCATTGGTGCAC; MOE gapmer, wing and gap sizes not given here)
- HCT [1]: 49%
- Lymphocyte [1]: 4445 cells/μL
- Neutrophil [1]: 1118 cells/μL
- Platelets [1]: 1007 10^3/μL
- RBC [1]: 9 10^6/μL
- WBC [1]: 6 10^3/μL
- hemoglobin [1]: 14 g/dL
- monocytes [1]: 174 cells/μL
- BUN [2]: 21 mg/dL
- ALT [3]: 225 IU/L
- AST [3]: 172 IU/L
- Bilirubin [3]: 0.36 mg/dL
- Cholesterol [3]: 103 mg/dL

Substance: 445513 (antisense eG*e[5mC]*eA*eG*e[5mC]*eG*dG*dA*d[5mC]*dG*dG*d[5mC]*dA*dT*eT*eG*eG*eT*eG*e[5mC]) [compound 445513]
- Percent inhibition of human Factor 11 mRNA levels [4]: 85%
- Concentration [5]: 167 mg/mL
- Viscosity [5]: 34 cP

Substance: 445509 (antisense e[5mC]*eG*eG*eA*e[5mC]*eG*dG*d[5mC]*dA*dT*dT*dG*dG*dT*eG*e[5mC]*eA*e[5mC]*eA*eG) [compound 445509]
- Percent inhibition of human Factor 11 mRNA levels [4]: 84%
- Concentration [5]: 167 mg/mL
- Viscosity [5]: >100 cP

Substance: 413476 (antisense eT*eT*eG*eA*eG*dA*dT*dT*d[5mC]*dT*dT*dT*dG*dG*dG*e[5mC]*e[5mC]*eA*eT*eT) [compound 413476]
- IC50 [6]: 900 nM
- percent inhibition of Factor 11 at 0.7 μM ([6]; 0.7 μM, relative to untreated control cells): 40%
- percent inhibition of Factor 11 at 2.2 μM ([6]; 2.2 μM, relative to untreated control cells): 69%
- percent inhibition of Factor 11 at 6.7 μM ([6]; 6.7 μM, relative to untreated control cells): 88%
- percent inhibition of Factor 11 at 20 μM ([6]; 20 μM, relative to untreated control cells): 93%
- % inhibition [7]: 88%
- % inhibition [8]: 93%
- IC50 [9]: 21 nM
- percent inhibition of Factor 11 at 9.375 nM ([9]; 9.375 nM, relative to untreated control cells): 24%
- percent inhibition of Factor 11 at 18.75 nM ([9]; 18.75 nM, relative to untreated control cells): 58%
- percent inhibition of Factor 11 at 37.5 nM ([9]; 37.5 nM, relative to untreated control cells): 62%
- percent inhibition of Factor 11 at 75 nM ([9]; 75 nM, relative to untreated control cells): 77%
- percent inhibition of Factor 11 at 9.375 nM ([10]; 9.375 nM): 26%
- percent inhibition of Factor 11 at 18.75 nM ([10]; 18.75 nM): 44%
- percent inhibition of Factor 11 at 37.5 nM ([10]; 37.5 nM): 64%
- percent inhibition of Factor 11 at 75 nM ([10]; 75 nM): 73%
- percent inhibition of Factor 11 at 150 nM ([10]; 150 nM): 82%
- IC50 [10]: 25 nM

Substance: 445505 (antisense e[5mC]*eG*eG*e[5mC]*eA*eT*dT*dG*dG*dT*dG*d[5mC]*dA*d[5mC]*eA*eG*eT*eT*eT*e[5mC]) [compound 445505]
- Percent inhibition of human Factor 11 mRNA levels [4]: 89%
- Concentration [5]: 155 mg/mL
- Viscosity [5]: 9 cP
- Percent inhibition of Factor 11 mRNA at 123.47 nM ([11]; electroporation, 123.47 nM, approx. 16 hours, relative to untreated control cells): 12%
- Percent inhibition of Factor 11 mRNA at 370.37 nM ([11]; electroporation, 370.37 nM, approx. 16 hours, relative to untreated control cells): 30%
- Percent inhibition of Factor 11 mRNA at 1,111.11 nM ([11]; electroporation, 1,111.11 nM, approx. 16 hours, relative to untreated control cells): 39%
- Percent inhibition of Factor 11 mRNA at 3,333.33 nM ([11]; electroporation, 3,333.33 nM, approx. 16 hours, relative to untreated control cells): 59%
- Percent inhibition of Factor 11 mRNA at 10,000.0 nM ([11]; electroporation, 10,000.0 nM, approx. 16 hours, relative to untreated control cells): 77%
- IC50 ([11]; electroporation, Factor 11 mRNA expression): 1800 nM

Substance: ISIS 445513, (antisense GCAGCGGACGGCATTGGTGC; 6-8-6 MOE gapmer, further chemistry not given here)
- HCT [12]: 50%
- RBC [12]: 9.8
- WBC [12]: 7
- hemoglobin [12]: 15.0 g/dL
